According to PubChem BioAssay (NCI):
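Method: 48-hour compound exposure of cells in 96-well plates, five concentrations, linear interpolation of endpoints. TGI: total growth inhibition.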

How the values were obtained:
Test in all cases: NCI anticancer screen, dose series, 48 h
UACC-62 melanoma = tested on: UACC-62 melanoma
A549 NSCLC = tested on: A549 NSCLC
HS 578T breast = tested on: HS 578T breast
CAKI-1 renal = tested on: CAKI-1 renal
MALME-3M melanoma = tested on: MALME-3M melanoma
SK-MEL-28 melanoma = tested on: SK-MEL-28 melanoma
NCI-H226 lung = tested on: NCI-H226 lung
SF-268 CNS = tested on: SF-268 CNS
UO-31 renal = tested on: UO-31 renal
LOX IMVI melanoma = tested on: LOX IMVI melanoma
KM12 colon = tested on: KM12 colon
HCT-116 colon = tested on: HCT-116 colon
NCI/ADR-RES ovarian = tested on: NCI/ADR-RES ovarian
IGROV1 ovarian = tested on: IGROV1 ovarian
HL-60(TB) leukemia = tested on: HL-60(TB) leukemia
RPMI-8226 leukemia = tested on: RPMI-8226 leukemia
CCRF-CEM leukemia = tested on: CCRF-CEM leukemia
COLO 205 colon = tested on: COLO 205 colon
MDA-MB-435 = tested on: MDA-MB-435
SF-539 CNS = tested on: SF-539 CNS

| SMILES | TGI (UACC-62 melanoma) [µM] | TGI (A549 NSCLC) [µM] | TGI (HS 578T breast) [µM] | TGI (CAKI-1 renal) [µM] | TGI (MALME-3M melanoma) [µM] | TGI (SK-MEL-28 melanoma) [µM] | TGI (NCI-H226 lung) [µM] | TGI (SF-268 CNS) [µM] | TGI (UO-31 renal) [µM] | TGI (LOX IMVI melanoma) [µM] | TGI (KM12 colon) [µM] | TGI (HCT-116 colon) [µM] | TGI (NCI/ADR-RES ovarian) [µM] | TGI (IGROV1 ovarian) [µM] | TGI (HL-60(TB) leukemia) [µM] | TGI (RPMI-8226 leukemia) [µM] | TGI (CCRF-CEM leukemia) [µM] | TGI (COLO 205 colon) [µM] | TGI (MDA-MB-435) [µM] | TGI (SF-539 CNS) [µM] |
| --- | --- | --- | --- | --- | --- | --- | --- | --- | --- | --- | --- | --- | --- | --- | --- | --- | --- | --- | --- | --- |
| Cc1ccc(S(=O)C[C@](NC(=O)OCc2ccccc2)(Sc2ccccc2)C(F)F)cc1 (stereo not given in full) | 29.9 | > 100 | 94.3 | 50.4 | 47.6 | 38.1 | 32.4 | 63.4 | 22.3 | 19.4 | 31.9 | 34.8 | 54.6 | 22.7 | 24.9 | 45 | 5.56 | 35.9 | 79.6 | – |
| C1CCCCC2(CCCCCCCCC3(CCC1)SCCS3)SCCS2 | > 100 | > 100 | > 100 | > 100 | > 100 | > 100 | > 100 | > 100 | – | > 100 | > 100 | > 100 | > 100 | > 100 | > 100 | – | – | > 100 | > 100 | > 100 |
| COC1(C2c3ccccc3CCN2C(=O)OC(C)(C)C)C(=O)C(c2ccccc2)=C1N(C)C (stereo not given) | > 100 | > 100 | 96.9 | > 100 | 93.8 | > 100 | 59.6 | > 100 | 64.4 | – | > 100 | 96.9 | 57.9 | – | 79.8 | – | > 100 | 35.4 | 61.6 | 47.6 |
| O=[N+]([O-])c1ccc(C2ON=C(c3ccccc3)N2C23CC4CC(CC(C4)C2)C3)cc1 (stereo not given) | > 10 | > 10 | > 10 | > 10 | > 10 | > 10 | > 10 | > 10 | – | > 10 | > 10 | > 10 | > 10 | > 10 | > 10 | > 10 | > 10 | > 10 | > 10 | > 10 |
| O=Cc1ccc(OC[C@H]2COC(=O)N2)cc1 | > 100 | > 100 | > 100 | > 100 | > 100 | > 100 | > 100 | > 100 | > 100 | > 100 | > 100 | > 100 | > 100 | > 100 | > 100 | – | > 100 | > 100 | > 100 | > 100 |
| COc1ccc2cc(CNCCCCCCCCNCc3ccc4cc(OC)ccc4c3)ccc2c1 | 3.79 | > 100 | > 20.8 | > 100 | – | 9.8 | > 100 | – | – | 43.4 | – | > 100 | > 100 | > 100 | 15.2 | 12.2 | 7.27 | 29.6 | 9.83 | – |
| CCOC(=O)c1sc2c(c1OC(=O)c1cc(OC)c(OC)c(OC)c1)c(=O)n(-c1ccccc1)c(=S)n2-c1ccccc1 | > 100 | > 100 | > 100 | > 100 | > 100 | > 100 | > 100 | > 100 | – | > 100 | > 100 | > 100 | > 100 | > 100 | > 100 | > 100 | > 100 | > 100 | > 100 | > 100 |
